Activity calls are given as the source filed them. Cut-off read from the data, not from the text of the source, for most assays here: actives have a measured EC50 and inactives only a lower limit. Bounds are passed on as bounds.

The term AC50 denotes the midpoint of the concentration-response curve, whichever way the signal moves.

Assay [1] addresses T1, Replicative DNA helicase DnaB (Mycobacterium tuberculosis, UniProt P9WMR3).
T1 sequence (P9WMR3 whole entry): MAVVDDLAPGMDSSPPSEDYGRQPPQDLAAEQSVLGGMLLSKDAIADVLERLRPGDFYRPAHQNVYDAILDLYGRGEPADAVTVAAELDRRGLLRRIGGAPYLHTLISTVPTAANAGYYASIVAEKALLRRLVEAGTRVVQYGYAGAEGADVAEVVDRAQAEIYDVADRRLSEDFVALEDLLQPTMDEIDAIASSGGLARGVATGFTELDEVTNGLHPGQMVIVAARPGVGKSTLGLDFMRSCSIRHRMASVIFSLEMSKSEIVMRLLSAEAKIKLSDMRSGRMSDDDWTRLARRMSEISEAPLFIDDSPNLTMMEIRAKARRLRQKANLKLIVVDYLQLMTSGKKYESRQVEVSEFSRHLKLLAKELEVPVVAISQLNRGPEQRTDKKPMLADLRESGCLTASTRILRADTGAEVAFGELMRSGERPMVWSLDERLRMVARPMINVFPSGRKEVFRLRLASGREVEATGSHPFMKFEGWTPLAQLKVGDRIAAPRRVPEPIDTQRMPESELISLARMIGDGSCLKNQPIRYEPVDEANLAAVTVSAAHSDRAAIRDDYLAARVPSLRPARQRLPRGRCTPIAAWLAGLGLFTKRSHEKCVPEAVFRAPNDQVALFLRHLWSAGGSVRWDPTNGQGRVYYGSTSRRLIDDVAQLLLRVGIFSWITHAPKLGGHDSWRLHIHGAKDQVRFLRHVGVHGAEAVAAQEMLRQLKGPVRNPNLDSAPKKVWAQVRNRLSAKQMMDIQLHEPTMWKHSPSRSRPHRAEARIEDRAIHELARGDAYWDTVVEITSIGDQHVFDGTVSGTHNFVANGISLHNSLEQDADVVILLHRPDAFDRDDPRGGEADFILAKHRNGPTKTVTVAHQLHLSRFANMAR
In words: DnaB intein splicing inhibitors, dose response, biochemical, cell-free fluorescence (AID 449749). It counts as functional.

A further assay deals with T2, Protein RecA (Mycobacterium tuberculosis, UniProt P9WHJ3).
T2 sequence (P9WHJ3 whole entry): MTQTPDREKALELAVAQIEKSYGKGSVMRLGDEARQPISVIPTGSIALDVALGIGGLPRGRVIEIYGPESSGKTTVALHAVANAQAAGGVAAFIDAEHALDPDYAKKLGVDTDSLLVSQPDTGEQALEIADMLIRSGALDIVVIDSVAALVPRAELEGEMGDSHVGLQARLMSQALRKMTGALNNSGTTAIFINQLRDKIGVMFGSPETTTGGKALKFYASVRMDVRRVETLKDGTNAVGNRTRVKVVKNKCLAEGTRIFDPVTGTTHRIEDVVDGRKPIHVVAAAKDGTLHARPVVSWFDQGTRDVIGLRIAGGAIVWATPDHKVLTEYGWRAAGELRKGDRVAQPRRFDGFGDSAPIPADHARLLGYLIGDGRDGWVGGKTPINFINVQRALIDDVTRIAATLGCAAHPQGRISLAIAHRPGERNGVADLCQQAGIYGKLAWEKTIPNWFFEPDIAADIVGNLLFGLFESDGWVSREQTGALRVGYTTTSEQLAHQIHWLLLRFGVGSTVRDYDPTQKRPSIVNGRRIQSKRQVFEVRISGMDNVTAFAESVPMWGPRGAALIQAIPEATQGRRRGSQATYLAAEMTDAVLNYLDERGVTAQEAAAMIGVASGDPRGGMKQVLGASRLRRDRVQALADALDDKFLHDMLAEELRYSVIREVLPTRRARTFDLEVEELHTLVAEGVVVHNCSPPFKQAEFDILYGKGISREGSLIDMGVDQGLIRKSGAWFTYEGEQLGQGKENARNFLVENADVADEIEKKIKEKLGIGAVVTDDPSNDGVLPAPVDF
The assay can be described thus: Fluorescence Cell-Free Homogeneous Dose Retest to Identify Inhibitors of RecA-Intein Splicing Activity. [Related pubchem assays (depositor defined):AID2097, AID2223, AID489010, AID492950]. Format: functional.

Assay [2] has as its target T3, Corticotropin-releasing factor receptor 2/Corticotropin-releasing factor-binding protein (Homo sapiens, UniProt P24387+Q13324).
T3 sequence (Q13324 whole entry): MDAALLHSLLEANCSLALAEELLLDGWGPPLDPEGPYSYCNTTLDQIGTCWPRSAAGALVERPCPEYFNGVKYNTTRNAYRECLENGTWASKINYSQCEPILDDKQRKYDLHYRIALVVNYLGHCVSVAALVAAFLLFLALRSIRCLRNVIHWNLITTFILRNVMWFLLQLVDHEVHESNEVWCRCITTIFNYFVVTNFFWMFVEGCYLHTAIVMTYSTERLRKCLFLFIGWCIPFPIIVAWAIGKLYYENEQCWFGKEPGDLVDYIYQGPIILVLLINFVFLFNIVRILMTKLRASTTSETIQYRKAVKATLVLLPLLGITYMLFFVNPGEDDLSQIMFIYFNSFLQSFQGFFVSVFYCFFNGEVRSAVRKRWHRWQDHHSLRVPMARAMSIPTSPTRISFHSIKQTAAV
T3 sequence (P24387 whole entry): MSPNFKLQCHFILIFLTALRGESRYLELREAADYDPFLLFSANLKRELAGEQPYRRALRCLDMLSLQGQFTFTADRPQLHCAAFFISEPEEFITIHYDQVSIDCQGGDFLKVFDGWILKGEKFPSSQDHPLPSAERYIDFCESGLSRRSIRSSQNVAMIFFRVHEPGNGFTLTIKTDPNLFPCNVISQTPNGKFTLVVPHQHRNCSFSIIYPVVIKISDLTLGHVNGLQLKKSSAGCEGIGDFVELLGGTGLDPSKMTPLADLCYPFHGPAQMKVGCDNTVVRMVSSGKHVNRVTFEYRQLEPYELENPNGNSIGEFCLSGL
The assay can be described thus: activators of CRF receptor 2 with binding protein – uHTS hits, confirmation (AID 602473). Format: functional. Conditions: read-out: EC50_Mean.

Assay [3] has as its target T3, Corticotropin-releasing factor receptor 2/Corticotropin-releasing factor-binding protein. In words: Dose Response confirmation of uHTS hits for small molecule antagonists of the CRF-binding protein and CRF-R2 receptor complex. Format: functional. Conditions: read-out: IC50_Mean.
Assay [4] deals with T4, Rac GTPase-activating protein 1 (Homo sapiens, UniProt Q9H0H5).
T4 sequence (Q9H0H5 whole entry): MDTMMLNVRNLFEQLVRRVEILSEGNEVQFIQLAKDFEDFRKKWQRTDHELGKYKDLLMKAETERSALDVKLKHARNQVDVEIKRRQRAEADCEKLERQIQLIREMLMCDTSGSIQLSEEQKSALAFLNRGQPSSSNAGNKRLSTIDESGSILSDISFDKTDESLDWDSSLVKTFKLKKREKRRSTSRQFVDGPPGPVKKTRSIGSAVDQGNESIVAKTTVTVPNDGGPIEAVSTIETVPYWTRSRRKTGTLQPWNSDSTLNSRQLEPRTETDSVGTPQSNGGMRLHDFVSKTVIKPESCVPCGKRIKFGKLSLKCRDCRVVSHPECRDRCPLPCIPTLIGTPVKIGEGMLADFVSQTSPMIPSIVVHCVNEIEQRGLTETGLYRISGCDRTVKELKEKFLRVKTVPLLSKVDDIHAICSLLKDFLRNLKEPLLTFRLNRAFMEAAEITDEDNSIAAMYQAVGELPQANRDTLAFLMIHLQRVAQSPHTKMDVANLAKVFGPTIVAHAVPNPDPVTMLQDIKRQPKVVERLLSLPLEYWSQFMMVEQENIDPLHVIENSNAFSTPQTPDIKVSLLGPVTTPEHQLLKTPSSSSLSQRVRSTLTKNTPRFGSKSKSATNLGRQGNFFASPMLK
In words: blockers of MgcRacGAP-driven Rac1 GTP hydrolysis – biochemical, ADP Hunter fluorescence, primary and confirmatory, confirmation (AID 624330). Format: functional.

For assay [5], the system named is Streptococcus sp. 'group A'. In words: Streptococcus pyogenes SK(-)GAS viability under kanamycin – luminescence, BacTiterGlo, confirmation, counter-screen for streptokinase expression inhibitor project, dose response (AID 1900). It counts as functional, organism-based. (In general: The purpose of a counterscreen is to sort out artefacts and off-target activity.)

Another assay addresses T5, Streptokinase A (Streptococcus pyogenes serotype M1, UniProt P10520).
T5 sequence (P10520 whole entry): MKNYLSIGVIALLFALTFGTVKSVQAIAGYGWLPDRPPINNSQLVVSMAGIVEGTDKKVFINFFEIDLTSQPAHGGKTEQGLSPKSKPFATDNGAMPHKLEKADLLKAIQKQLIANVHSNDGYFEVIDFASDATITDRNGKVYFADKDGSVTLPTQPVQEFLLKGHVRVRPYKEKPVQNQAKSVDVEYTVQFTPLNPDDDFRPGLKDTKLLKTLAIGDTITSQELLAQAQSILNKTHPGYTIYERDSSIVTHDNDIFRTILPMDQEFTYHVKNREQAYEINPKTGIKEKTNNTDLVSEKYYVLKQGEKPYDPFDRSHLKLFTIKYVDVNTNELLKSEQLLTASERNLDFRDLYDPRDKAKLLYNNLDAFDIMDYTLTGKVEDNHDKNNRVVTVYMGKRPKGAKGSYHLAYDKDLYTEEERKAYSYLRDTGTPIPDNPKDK
The assay can be described thus: viability-normalized secreted streptokinase activity reduction – plasminogen activation absorbance, OD405, dose response (AID 1914).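 Note: secreted streptokinase activity via plasminogen activation per viability signal from cell pellet.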 It counts as functional, Streptococcus pyogenes M1 GAS.

The subject of the next assay is Streptococcus. The assay can be described thus: GAS UMAA2166 growth inhibition – luminescence, BacTiterGlo, counter-screen for streptokinase expression inhibitor project, dose response (AID 1915).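 Note: potency for reduction of bacterial viability or growth.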 It counts as functional, organism-based.

On to `Cc1cc(=O)n(CCCc2ccccc2)[nH]1`, for which the AC50 in assay [1] is 2.4 µM (active). In addition, the EC50 at Protein RecA is 2.23 µM (active).

Consider `CCOc1ccc(N(CC(=O)NCC2CCCO2)C(=O)CCC(=O)Nc2nccs2)cc1` (stereo not given), for which, in assay [2], the EC50 is > 53 µM (inactive). Besides, in assay [3], the IC50 was > 47.1 µM (inactive).

For the compound `O=C(CSCc1ccccc1)Nc1cc([N+](=O)[O-])ccc1F`, the EC50 in assay [2] was > 53 µM (inactive). Besides, in assay [3], the IC50 is > 47.1 µM (inactive).

Consider `O=C(COC(=O)CCc1ccc(S(=O)(=O)N2CCOCC2)cc1)Nc1ccccc1OC(F)F`, for which the EC50 in assay [2] was > 53 µM (inactive). The IC50 in assay [3] is > 47.1 µM (inactive).

Turning to `COc1ccc(C2c3c(-c4ccccc4O)n[nH]c3C(=O)N2Cc2ccco2)cc1` (stereo not given), the EC50 in assay [2] is > 53 µM (inactive). Besides, the IC50 in assay [3] is > 47.1 µM (inactive).

`COc1ccc(Nc2ccccc2)c(C)c1`: the IC50 in assay [4] was 44.9 µM (active); in assay [3] it was > 47.1 µM (inactive). The EC50 in assay [2] was > 53 µM (inactive).

For `CCc1ccc(C2C(C#N)=C(N)C(C#N)(C#N)C3=CCC(C(C)(C)C)CC32)cc1` (stereo not given), in assay [1], the AC50 is > 120 µM (inactive). Moreover, the EC50 was 4.85 µM (active) in assay [5], 5.84 µM (active) on Streptokinase A, > 150 µM (not active) in the assay on Streptococcus and 3 µM (active) on Protein RecA.

As for `COc1ccc(-c2cc(C(=O)O)nc3ccc4ccccc4c23)cc1OC`, the EC50 in assay [2] was > 53 µM (inactive). In assay [3], the IC50 is > 47.1 µM (inactive).

`Cc1ccc(Cl)cc1N1CCN(C(=O)Cc2c(C(=O)O)[nH]c3ccc(Cl)cc23)CC1`: the EC50 in assay [2] is > 53 µM (inactive). In assay [3], the IC50 is > 47.1 µM (inactive).

Turning to `Cc1cc(-c2[nH]nc3c2C(c2ccsc2)C(C#N)=C(N)O3)c(C)s1` (stereo not given), in assay [1], the AC50 is 3.47 µM (active). Further, on Protein RecA, the EC50 is 1.2 µM (active).

Consider `Cc1ncc([N+](=O)[O-])n1CCOC(N)=O` [BAMNIDAZOLE], for which, in assay [2], the EC50 is > 53 µM (inactive). Further, the IC50 in assay [3] is > 47.1 µM (inactive).

Regarding `CCCc1n[nH]c2c1C(c1c[nH]nc1-c1ccc(F)cc1)C(C#N)=C(N)O2` (stereo not given), the AC50 in assay [1] was 2.08 µM (active). Moreover, at Protein RecA, the EC50 was 1.54 µM (active).

With `CC(NC(=O)C1CCCN1S(=O)(=O)c1cccc2nsnc12)c1ccccc1` (stereo not given), the EC50 in assay [2] was > 53 µM (inactive). In addition, the IC50 in assay [3] is > 47.1 µM (inactive).

As for `COc1ccc(CN(C(=O)c2ccc(C)cc2)C2CCS(=O)(=O)C2)cc1` (stereo not given), the EC50 in assay [2] is > 53 µM (inactive). Besides, the IC50 in assay [3] was > 47.1 µM (inactive).

For the compound `CCCCCCCCc1c(O)nc(-n2[nH]c(C)c(CCO)c2=O)[nH]c1=O`, in assay [1], the AC50 was 47.4 µM (active). Further, the EC50 at Protein RecA is 96.8 µM (active).

Regarding `Cc1nnsc1-c1onc(C)c1C(=O)O/N=C/c1ccc(Cl)cc1`, in assay [2], the EC50 is > 53 µM (inactive). For the same compound, the IC50 in assay [3] is > 47.1 µM (inactive).

With `COc1ccc([N+](=O)[O-])cc1N(CC(=O)NCCCOC(C)C)S(C)(=O)=O`, in assay [2], the EC50 was > 53 µM (inactive). Also, the IC50 in assay [3] is > 47.1 µM (inactive).

Regarding `Cc1sc2ncnc(Sc3ccccc3C(=O)Nc3ccc(C#N)cc3)c2c1C`, in assay [2], the EC50 was > 53 µM (inactive). Moreover, in assay [3], the IC50 was > 47.1 µM (inactive).
